Measurements as given in ChEMBL document CHEMBL5584239, “Discovery of novel quinoline scaffold selective estrogen receptor degraders (SERDs) for treatment of ER positive breast cancer with enhanced antiproliferative bioactivity through immunogenic cell death (ICD) effects” (Eur J Med Chem, 2024).
Calls of active or inactive are those of the source. No cut-off for these calls is given here.

Tests used:
[1] = test system: MCF7; test: Antitumor activity against human MCF7 cells xenografted in nude mouse model assessed as tumor growth inhibition at 60 mg/kg, po administered daily via gavage for 30 days; assay type: functional, organism-based; conditions: time 30.0 day
[2] = test system: MCF7; test: Induction of endoplasmic reticulum stress effect in human MCF7 cells assessed as change in GRP78 level at 10 uM incubated for 3 to 24 hrs by Western blot analysis; assay type: functional, cell-based; conditions: time 3-24 hrs
[3] = Oral bioavailability in rat at 20 mg/kg measured for 1 to 24 hrs by LC-MS analysis; assay type: ADME, organism-based; conditions: in vivo, time 1-24 hrs
[4] = test system: MCF7; test: Induction of immunogenic cell death in human MCF7 cells assessed as CRT translocation at 10 uM by Western blot analysis; assay type: functional, cell-based
[5] = MRT (0 to infinity) in rat at 20 mg/kg, po measured for 1 to 24 hrs by LC-MS analysis; assay type: ADME, organism-based; conditions: in vivo, time 1-24 hrs
[6] = target: T1, Estrogen receptor (Homo sapiens) (UniProt P03372); test: Induction of estrogen receptor degradation in human MCF7 cells expressing ERE-luciferase at 10 uM incubated for 24 hrs by luminescence based analysis; assay type: cell-based
T1 sequence (whole entry): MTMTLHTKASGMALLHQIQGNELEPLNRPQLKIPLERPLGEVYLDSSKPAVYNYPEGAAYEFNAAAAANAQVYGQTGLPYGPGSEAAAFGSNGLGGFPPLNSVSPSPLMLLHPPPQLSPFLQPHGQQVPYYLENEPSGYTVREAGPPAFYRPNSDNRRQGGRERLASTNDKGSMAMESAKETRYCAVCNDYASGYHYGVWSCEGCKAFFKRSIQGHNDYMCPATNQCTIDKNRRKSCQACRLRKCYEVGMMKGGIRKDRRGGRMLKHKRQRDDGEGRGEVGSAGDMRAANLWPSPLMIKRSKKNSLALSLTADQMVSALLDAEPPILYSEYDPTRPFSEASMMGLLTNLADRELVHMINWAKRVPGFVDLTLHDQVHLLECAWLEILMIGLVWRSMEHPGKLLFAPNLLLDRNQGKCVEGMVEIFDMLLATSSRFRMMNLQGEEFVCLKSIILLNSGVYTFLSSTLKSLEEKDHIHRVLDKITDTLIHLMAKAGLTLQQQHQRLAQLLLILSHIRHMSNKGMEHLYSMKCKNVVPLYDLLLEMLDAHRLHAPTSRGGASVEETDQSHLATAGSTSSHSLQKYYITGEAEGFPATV

[7] = Toxicity in nude mouse model xenografted with human MCF7 cells assessed as morphological change in liver at 60 mg/kg, po administered daily via gavage for 30 days by H and E staining based analysis; assay type: organism-based; conditions: in vivo, 720 h, time 30 day
[8] = test system: MCF7; test: Antiproliferative activity against human MCF7 cells incubated for 5 days by MTT assay; assay type: functional, cell-based; conditions: MCF7, 120 h
[9] = test system: MCF7; test: Induction of immunogenic cell death in human MCF7 cells assessed as HSP90 exposure at 10 uM by Western blot analysis; assay type: functional, cell-based
[10] = test system: MCF7; test: Induction of immunogenic cell death in human MCF7 cells assessed as CRT translocation at 10 uM by fluorescence microscopy; assay type: functional, cell-based
[11] = target: T1, Estrogen receptor (Homo sapiens); test: Induction of estrogen receptor degradation in estradiol-stimulated human MCF7 cells assessed as decrease in GREB1 mRNA level incubated for 24 hrs by RT-qPCR analysis; assay type: cell-based; conditions: dose 1-10 µM
[12] = test system: MCF7; test: Induction of immunogenic cell death in human MCF7 cells assessed as HMGB1 release from nucleus at 10 uM by FITC staining based flow cytometry; assay type: functional
[13] = test system: MCF7; test: Induction of endoplasmic reticulum stress effect in human MCF7 cells assessed as change in EIF-2alpha level at 10 uM incubated for 3 to 24 hrs by Western blot analysis; assay type: functional, cell-based; conditions: time 3-24 hrs
[14] = test system: MCF7; test: Induction of ROS production in human MCF7 cells incubated for 3 to 24 hrs by immunofluorescence analysis; assay type: functional, cell-based; conditions: time 3-24 hrs
[15] = Tmax in rat at 20 mg/kg, po measured for 1 to 24 hrs by LC-MS analysis; assay type: ADME, organism-based; conditions: in vivo, time 1-24 hrs
[16] = Toxicity in nude mouse model xenografted with human MCF7 cells assessed as morphological change in spleen at 60 mg/kg, po administered daily via gavage for 30 days by H and E staining based analysis; assay type: organism-based; conditions: in vivo, 720 h, time 30 day
[17] = test system: MCF7; test: Antitumor activity against human MCF7 cells xenografted in nude mouse model at 60 mg/kg, po administered daily via gavage for 30 days in presence of ribociclib; assay type: functional, organism-based; conditions: time 30.0 day
[18] = AUC (0 to t) in rat at 20 mg/kg, po measured for 1 to 24 hrs by LC-MS analysis; assay type: ADME, organism-based; conditions: in vivo, time 1-24 hrs
[19] = test system: MCF7; test: Induction of endoplasmic reticulum stress effect in human MCF7 cells assessed as change in CHOP level at 10 uM incubated for 3 to 24 hrs by Western blot analysis; assay type: functional, cell-based; conditions: time 3-24 hrs
[20] = test system: MCF7; test: Induction of ROS production in human MCF7 cells measured after 6 to 24 hrs by flow cytometry; assay type: functional, cell-based; conditions: time 6-24 hrs
[21] = AUC (0 to t) in rat at 5 mg/kg, iv measured for 1 to 24 hrs by LC-MS analysis; assay type: ADME, organism-based; conditions: in vivo, time 1-24 hrs
[22] = Toxicity in nude mouse model xenografted with human MCF7 cells assessed as body weight loss at 60 mg/kg, po administered daily via gavage for 30 days; assay type: organism-based; conditions: in vivo, 720 h, time 30 day
[23] = test system: MCF7; test: Induction of immunogenic cell death in human MCF7 cells assessed as HMGB1 release from nucleus at 10 uM by fluorescence microscopy; assay type: functional, cell-based
[24] = test system: MCF7; test: Antitumor activity against human MCF7 cells xenografted in nude mouse model assessed as reduction in ER level at 60 mg/kg, po administered daily via gavage for 30 days in presence of ribociclib by IHC analysis; assay type: functional, organism-based; conditions: time 30.0 day
[25] = Half life in rat at 5 mg/kg, iv measured for 1 to 24 hrs by LC-MS analysis; assay type: ADME, organism-based; conditions: in vivo, time 1-24 hrs

bioavailability [3]: 5.32%
MRT inf [5]: 160 min
Activity [6]: Active
IC50 [8]: 150 nM
Activity [11]: Dose-Dependent Effect
Tmax [15]: 15 min
AUC(0-t) [18]: 628 ng·h/mL
AUC(0-t) [21]: 3050 ng·h/mL
half-life [25]: 51.8 min
SMILES: CCc1ccccc1C(=O)c1cnc2cc(O)ccc2c1Oc1ccc(/C=C/C(=O)O)cc1
inhibition [1]: Active
Activity [2]: Active
Activity [4]: Active
Activity [7]: Non-Toxic
Activity [9]: Active
Activity [10]: Active
Activity [12]: Active
Activity [13]: Active
Activity [14]: inactive
Activity [16]: Non-Toxic
Activity [17]: Active
Activity [19]: Active
Activity [20]: inactive
Activity [22]: Non-Toxic
Activity [23]: Active
Activity [24]: Active
